Data as given in patent publication US20140081017A1, “Histone Deacetylase Inhibitors for Enhancing Activity of Antifungal Agents” (METHYLGENE INC., priority 2012, published 2014).
In brackets after ≈: the same amount, converted by molar mass. Like-named read-outs stand apart in the source and are kept apart here.

What was measured:
C. glabrata = test: Checkerboard FIC assay in combination with fluconazole (MIC alone and in combination, FICI); type: cell-based, Candida glabrata; details: for FICI of combination resulting in fluconazole MIC of: 2 ug/mL / FICI of combination resulting in fluconazole MIC of: 4 ug/mL / FICI of combination resulting in fluconazole MIC of: 8 ug/mL: FICI calculated using a fluconazole MIC of 16 μg/mL; for FICI of combination resulting in fluconazole MIC of: 2 ug/mL (value in parenthesis) / FICI of combination resulting in fluconazole MIC of: 4 ug/mL (value in parenthesis) / FICI of combination resulting in fluconazole MIC of: 8 ug/mL (value in parenthesis): FICI using a fluconazole MIC of 128 μg/mL; for MIC: Nakaseomyces glabratus; for Multiple of compound MIC to synergize fluconazole MIC to 2 ug/mL / Multiple of compound MIC to synergize fluconazole MIC to 4 ug/mL / Multiple of compound MIC to synergize fluconazole MIC to 8 ug/mL: concentration in combination as multiple of the compound's MIC alone; for Multiple of compound MIC to synergize fluconazole MIC to 2 ug/mL: fluconazole MIC 2 ug/mL; for Multiple of compound MIC to synergize fluconazole MIC to 4 ug/mL: fluconazole MIC 4 ug/mL; for Multiple of compound MIC to synergize fluconazole MIC to 8 ug/mL: fluconazole MIC 8 ug/mL; for Concentration of Methylgene compound to synergize fluconazole MIC to 2 ug/mL / Concentration of Methylgene compound to synergize fluconazole MIC to 4 ug/mL / Concentration of Methylgene compound to synergize fluconazole MIC to 8 ug/mL: in combination with fluconazole; for Concentration of Methylgene compound to synergize fluconazole MIC to 2 ug/mL: fluconazole MIC lowered to 2 ug/mL; for Concentration of Methylgene compound to synergize fluconazole MIC to 4 ug/mL: fluconazole MIC lowered to 4 ug/mL; for Concentration of Methylgene compound to synergize fluconazole MIC to 8 ug/mL: fluconazole MIC lowered to 8 ug/mL
Summary of the method: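 C. glabrata was tested by CLSI broth microdilution checkerboard, crossing 2-fold dilutions of compound with 2-fold dilutions of fluconazole. The medium was RPMI with 0.165 M MOPS at pH 7.0, inoculated from a 0.5 McFarland suspension diluted 1:100, then incubated about 48 h at 35 °C. Single-agent MICs gave the FIC and FICI values.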

Candida glabrata = test: Minimal Inhibitory Concentration (MIC) assay, broth microdilution per CLSI; type: cell-based; details: Nakaseomyces glabratus, read-out: Minimum Inhibitory Concentrations against Yeast Isolates, Candida glabrata;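 further: two read times 24 hr and 48 hr of incubation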
Summary of the method: (§1)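 Yeasts incubated ~24-48 hr at 35°C in MOPS-buffered RPMI (0.165 M, pH 7.0) containing DMSO-dissolved compound, following CLSI microdilution. Inoculum: 0.5 McFarland, diluted 1:100. MIC read visually as lowest concentration inhibiting growth (prominent-decrease endpoint for fluconazole).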

Candida parapsilosis = test: as above; type: cell-based; details: Lodderomyces parapsilosis, read-out: Minimum Inhibitory Concentrations against Yeast Isolates, Candida parapsilosis;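 further: two read times 24 hr and 48 hr of incubation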
Summary of the method: as §1

Candida albicans = test: as above; type: cell-based; details: Candida albicans, read-out: Minimum Inhibitory Concentrations against Yeast Isolates, Candida albicans;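 further: two read times 24 hr and 48 hr of incubation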
Summary of the method: as §1

[1] = MIC of the example compound alone against C. glabrata in the checkerboard assay, approximately 48 hr, read-out: Methylgene MIC
[2] = test compound alone, C. glabrata, approx. 48 hr at 35° C., read-out: Compound MIC
[3] = 24 hr reading (first value of cell 24 hr/48 hr)
[4] = 48 hr reading (second value of cell 24 hr/48 hr)

| Compound | FICI of combination resulting in fluconazole MIC of: 2 ug/mL (C. glabrata; C. glabrata) | FICI of combination resulting in fluconazole MIC of: 4 ug/mL (C. glabrata; C. glabrata) | FICI of combination resulting in fluconazole MIC of: 8 ug/mL (C. glabrata; C. glabrata) | FICI of combination resulting in fluconazole MIC of: 2 ug/mL (value in parenthesis) (C. glabrata; C. glabrata) | FICI of combination resulting in fluconazole MIC of: 4 ug/mL (value in parenthesis) (C. glabrata; C. glabrata) | FICI of combination resulting in fluconazole MIC of: 8 ug/mL (value in parenthesis) (C. glabrata; C. glabrata) | MIC (C. glabrata; [1]) | MIC (C. glabrata; [2]) | Multiple of compound MIC to synergize fluconazole MIC to 2 ug/mL (C. glabrata) | Multiple of compound MIC to synergize fluconazole MIC to 4 ug/mL (C. glabrata) | Multiple of compound MIC to synergize fluconazole MIC to 8 ug/mL (C. glabrata) | Concentration of Methylgene compound to synergize fluconazole MIC to 2 ug/mL (C. glabrata; C. glabrata) | Concentration of Methylgene compound to synergize fluconazole MIC to 4 ug/mL (C. glabrata; C. glabrata) | Concentration of Methylgene compound to synergize fluconazole MIC to 8 ug/mL (C. glabrata; C. glabrata) | MIC (Candida glabrata; [3]) | MIC (Candida glabrata; [4]) | MIC (Candida parapsilosis; [3]) | MIC (Candida parapsilosis; [4]) | MIC (Candida albicans; [3]) | MIC (Candida albicans; [4]) |
| --- | --- | --- | --- | --- | --- | --- | --- | --- | --- | --- | --- | --- | --- | --- | --- | --- | --- | --- | --- | --- |
| Cn1ccc2cc(CCCCc3ccc(CC(=O)NO)cc3)ccc21 [Example 6, N-hydroxy-2-(4-(4-(1-methyl-1H-indol-5-yl)butyl)phenyl) acetamide] | 0.313 | 0.245 | 0.370 | 0.266 | 0.151 | 0.183 | 1 µg/mL | 1 µg/mL | (¼x) | (⅛x) | (⅛x) | 0.25 µg/mL | 0.12 µg/mL | 0.12 µg/mL | 0.25 µg/mL (≈ 0.743 µM) | 0.5 µg/mL (≈ 1.49 µM) | > 4 µg/mL | > 4 µg/mL | 0.5 µg/mL (≈ 1.49 µM) | 0.5 µg/mL (≈ 1.49 µM) |
| COCCOCCOCCNC(=O)c1ccc(CCCCc2ccc(CC(=O)NO)cc2)cc1 [Example 11, 4-(4-(4-(2-(hydroxyamino)-2-oxoethyl)phenyl)butyl)-N-(2-(2-(2-methoxyethoxy)ethoxy)ethyl)benzamide] | 0.375 | 0.375 | 0.625 | 0.266 | 0.156 | 0.188 | 8 µg/mL | 8 µg/mL | (¼x) | (⅛x) | (⅛x) | 2 µg/mL | 1 µg/mL | 1 µg/mL | > 64 µg/mL | > 64 µg/mL | > 64 µg/mL | > 64 µg/mL | > 64 µg/mL | > 64 µg/mL |
| COc1ccc(CCCCc2ccc(CC(=O)NO)cc2)cc1 [Example 9, N-hydroxy-2-(4-(4-(4-methoxyphenyl)butyl)phenyl)acetamide] | 0.625 | 0.490 | 0.620 | 0.516 | 0.271 | 0.183 | 0.5 µg/mL | 0.5 µg/mL | (½x) | (¼x) | (⅛x) | 0.25 µg/mL | 0.12 µg/mL | 0.06 µg/mL | 0.5 µg/mL (≈ 1.6 µM) | > 4 µg/mL | 1 µg/mL (≈ 3.19 µM) | 1 µg/mL (≈ 3.19 µM) | 1 µg/mL (≈ 3.19 µM) | 1 µg/mL (≈ 3.19 µM) |

Now from value to molecule:

| FICI of combination resulting in fluconazole MIC of: 2 ug/mL (C. glabrata; C. glabrata) | FICI of combination resulting in fluconazole MIC of: 4 ug/mL (C. glabrata; C. glabrata) | FICI of combination resulting in fluconazole MIC of: 8 ug/mL (C. glabrata; C. glabrata) | FICI of combination resulting in fluconazole MIC of: 2 ug/mL (value in parenthesis) (C. glabrata; C. glabrata) | FICI of combination resulting in fluconazole MIC of: 4 ug/mL (value in parenthesis) (C. glabrata; C. glabrata) | FICI of combination resulting in fluconazole MIC of: 8 ug/mL (value in parenthesis) (C. glabrata; C. glabrata) | MIC (C. glabrata; [1]) | MIC (C. glabrata; [2]) | Multiple of compound MIC to synergize fluconazole MIC to 2 ug/mL (C. glabrata) | Multiple of compound MIC to synergize fluconazole MIC to 4 ug/mL (C. glabrata) | Multiple of compound MIC to synergize fluconazole MIC to 8 ug/mL (C. glabrata) | Concentration of Methylgene compound to synergize fluconazole MIC to 2 ug/mL (C. glabrata; C. glabrata) | Concentration of Methylgene compound to synergize fluconazole MIC to 4 ug/mL (C. glabrata; C. glabrata) | Concentration of Methylgene compound to synergize fluconazole MIC to 8 ug/mL (C. glabrata; C. glabrata) | MIC (Candida glabrata; [3]) | MIC (Candida glabrata; [4]) | MIC (Candida parapsilosis; [3]) | MIC (Candida parapsilosis; [4]) | MIC (Candida albicans; [3]) | MIC (Candida albicans; [4]) | Compound |
| --- | --- | --- | --- | --- | --- | --- | --- | --- | --- | --- | --- | --- | --- | --- | --- | --- | --- | --- | --- | --- |
| 0.188 | 0.188 | 0.313 | 0.141 | 0.094 | 0.125 | > 4 µg/mL | > 4 µg/mL | – | – | – | 1 µg/mL | 0.5 µg/mL | 0.5 µg/mL | > 4 µg/mL | > 4 µg/mL | > 4 µg/mL | > 4 µg/mL | > 4 µg/mL | > 4 µg/mL | COC(=O)Nc1ccc(CCCCc2ccc(CC(=O)NO)cc2)cc1 [Example 48, methyl 4-(4-(4-(2-(hydroxyamino)-2-oxoethyl)phenyl)butyl) phenylcarbamate] |
| 0.375 | 0.500 | 0.625 | 0.266 | 0.281 | 0.188 | 4 µg/mL | 4 µg/mL | (¼x) | (¼x) | (⅛x) | 1 µg/mL | 1 µg/mL | 0.5 µg/mL | > 8 µg/mL | > 8 µg/mL | > 16 µg/mL | > 16 µg/mL | > 16 µg/mL | > 16 µg/mL | Nc1ccc(CCCCc2ccc(CC(=O)NO)cc2)cc1 [Example 31, 2-(4-(4-(4-aminophenyl)butyl)phenyl)-N-hydroxyacetamide] |
| 0.313 | 0.250 | 0.375 | 0.266 | 0.156 | 0.188 | 16 µg/mL | 16 µg/mL | (¼x) | (⅛x) | (⅛x) | 4 µg/mL | 2 µg/mL | 2 µg/mL | 4 µg/mL (≈ 7.86 µM) | 16 µg/mL (≈ 31.5 µM) | > 64 µg/mL | > 64 µg/mL | > 64 µg/mL | > 64 µg/mL | COCCOCCOCCNS(=O)(=O)c1ccc(CCCCc2ccc(CC(=O)NO)cc2)cc1 [Example 12, N-hydroxy-2-(4-(4-(4-(N-(2-(2-(2-methoxyethoxy)ethoxy)ethyl)sulfamoyl)phenyl)butyl)phenyl)acetamide] |
